From patent US20230116399A1, “Tumor Homing Statin Derivatives” (Da Zen Theranostics, Inc., priority 2019, published 2023) come the findings set out here.

What is called IC50 is the point on the concentration scale where inhibition reaches its midpoint.

The test system of one assay is PC3 (PC). Briefly: MTT cell viability, PC3. Format: cell-based. Conditions: Homo sapiens, 48 h / 24 hours, relative IC50. As to the method: (§1) Cell culture: In the following examples, unless otherwise specified, all cell lines are purchased from American Type Culture Collection and cultured in American Type Culture Collection (ATCC)-recommended media, with fetal bovine serum (FBS) to a final concentration of 10% and 1×penicillin/streptomycin at 37° C. with 5% CO2 in a cell culture incubator, unless otherwise specified. Unless otherwise specified, culture is 2D. Where culture is 3D, low attachment plates are used, with the same media. C4-2B (parental cell line and drug-resistant cells derived therefrom) are cultured in RPMI-1640 with 10% FBS. MDVR cells (an Enzalutamide-resistant variety of C4-2B prostate cancer cells formed as described in Example 4 below) are cultured as indicated for the parental C4-2B cells. 22RV1 Prostate Cancer (PC) cells (ATCC® CRL-2505™, a human prostate carcinoma cell line of epithelial morphology) are cultured in RPMI-1640 with 10% FBS. A549 cells (ATCC® CCL-185™, a human lung carcinoma cell line of epithelial morphology) are cultured in F-12K medium with 10% FBS. A549/DDP cells (Cells were described in DOI: 10.3892/mmr.2014.2163 and in doi: 10.7150/jca.19426; cisplatin resistant cells may be established from exposing parental A549 cells to cisplatin for an extended time). MDR A549/cisplatin lung adenocarcinoma cell line, drug resistant) are cultured in F-12K medium with 10% FBS. […]

In the next assay the test system is EZ-resistant C4-2B (PC). Kind of assay: MTT cell viability, EZ-resistant C4-2B (MDVR). Conditions: Homo sapiens, 48 h / 24 hours, relative IC50. Format: cell-based. Here is the method:
as §1

For assay [1], the system named is 22RV1 prostate cancer cells. Briefly: Cholesterol levels in whole cells and mitochondria (LC-SIM). It counts as cell-based, human. Here is the method:
Example 3E: Whole cells and mitochondria are prepared/treated as follows. 22RV1 prostate cancer cells are cultured as described herein-above. The cells are harvested, treated with Lithium dodecyl sulfate (LDS) detergent, then a whole cell fraction and an isolated mitochondrial fraction provided by centrifugation and the pellets are processed to determine their cholesterol levels as follows: cholesterol is extracted with hexane/methanol mixture (7:1, v/v), into which an appropriate amount of stable isotope-labeled d7-cholesterol standard (Avanti Polar Lipids) is spiked. Samples are sonicated in a water-bath, vortexed, and centrifuged at 16,000×g for 5 min at RT. The upper layers are dried down in a SpeedVac at RT. Then samples are incubated with 200 μL 10 mg/mL 4-(dimethylamino)phenyl isocyanate (DMAPI) in dichloromethane and 30 μL triethylamine at 65° C. for 1.5 h in a ThermoMixer. The reaction is quenched by phosphate buffer (pH 8.0), followed by extraction of DMAPI-labeled cholesterol with hexane and vacuum concentration in a SpeedVac. The dry residues are reconstituted in acetonitrile/isopropanol (1:1) and analyzed by liquid chromatography-selected ion monitoring (LC-SIM) using an Ultimate 3000 XRS liquid chromatography system connected to an Orbitrap Fusion Lumos mass spectrometer (Thermo Scientific). Following separation on a 5-cm Hypersil GOLD C18 column, DMAPI-derivatized endogenous cholesterol (m/z 549.442) and d7-cholesterol (m/z 556.485) are analyzed by time-scheduled SIM analysis on an Orbitrap Fusion Lumos. The acquired LC-SIM data are analyzed by Skyline for cholesterol quantification.

For the compound `CCC(C)(C)C(=O)O[C@H]1C[C@@H](C)C=C2C=C[C@H](C)[C@H](CC[C@@H]3C[C@@H](O)CC(=O)O3)[C@H]21` [Simvastatin], the IC50 was 14.8 µM in the assay on PC3 (PC) and 25.5 µM in the assay on EZ-resistant C4-2B (PC). In addition, the “Cholesterol, mitochondria” value in assay [1] (mitochondrial fraction) is 56 nmol Cholesterol per 10^7 cells. The “Cholesterol, mitochondria, relative to vehicle control (100%)” value is given as 51% in assay [1] (mitochondrial fraction) and “(51%)” in assay [1] (mitochondrial fraction, listed as SIM). The “Cholesterol, whole cells” value in assay [1] (whole cells) is 102 nmol Cholesterol per 10^6 cells. The “Cholesterol, whole cells, relative to vehicle control (100%)” value in assay [1] (whole cells) was 88%; in assay [1] (whole cells, listed as SIM) it was “(88%)”.
